PubChem BioAssay AID330 (DTP/NCI, 2004)
Several values for one entry are separate records, joined by “and”; a condition that tells them apart may be missing. Equal entries are not always repeated. Inconclusive results and toxic doses are left out. How the source made its calls: active means survival T/C of 150% or more; inactive means T/C below 125% in these data.

Tested on: P388 leukemia ip, CD2F1 mice, survival T/C
Test: NCI In Vivo Anticancer Drug Screen. Data for tumor model P388 Leukemia (intraperitoneal) in CD2F1 (CDF1) mice
Details: endpoint: median survival time, higher = longer survival
In short: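 Mice carrying the transplanted tumor received test compound or vehicle. Survival was recorded in each group, and the value is the treated-group measurement divided by that of the vehicle-treated control group.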

[1] = dose: 60.0 mg/kg/injection, schedule: Q01DX005 (ip), vehicle: saline
[2] = dose: 120.0 mg/kg/injection, schedule: Q01DX005 (ip), vehicle: saline
[3] = dose: 240.0 mg/kg/injection, schedule: Q01DX005 (ip), vehicle: saline
[4] = dose: 60.0 mg/kg/injection, schedule: Q01DX005 (ip), vehicle: saline with Tween-80
[5] = dose: 50.0 mg/kg/injection, schedule: Q01DX009 (ip), vehicle: saline with Tween-80
[6] = dose: 100.0 mg/kg/injection, schedule: Q01DX009 (ip), vehicle: saline with Tween-80
[7] = dose: 12.5 mg/kg/injection, schedule: Q01DX009 (ip), vehicle: saline with Tween-80
[8] = dose: 25.0 mg/kg/injection, schedule: Q01DX009 (ip), vehicle: saline with Tween-80
[9] = dose: 12.5 mg/kg/injection, schedule: Q01DX009 (ip), vehicle: saline
[10] = dose: 50.0 mg/kg/injection, schedule: Q01DX005 (ip), vehicle: Klucel (hydroxypropylcellulose) (HPC)
[11] = dose: 100.0 mg/kg/injection, schedule: Q01DX005 (ip), vehicle: Klucel (hydroxypropylcellulose) (HPC)
[12] = dose: 200.0 mg/kg/injection, schedule: Q01DX005 (ip), vehicle: Klucel (hydroxypropylcellulose) (HPC)

Measured: T/C

COc1nc(NC2OCC(O)C(O)C2O)c(C=O)c(=O)n1C (centres undefined)
inactive: [1] 100 % of control | [2] 90 % of control | [3] 90 % of control

O=S1CCCS(=O)C1c1ccccc1 (centres undefined)
inactive: [4] 100 % of control | dose: 120.0 mg/kg/injection, schedule: Q01DX005 (ip), vehicle: saline with Tween-80 91 % of control | dose: 240.0 mg/kg/injection, schedule: Q01DX005 (ip), vehicle: saline with Tween-80 97 % of control

Nc1nc(-c2cc(-c3cccc4ccccc34)nc(N)n2)cc(-c2cccc3ccccc23)n1
inactive: dose: 60.0 mg/kg/injection, schedule: Q01DX005 (ip), vehicle: suspension in saline 101 % of control | dose: 120.0 mg/kg/injection, schedule: Q01DX005 (ip), vehicle: suspension in saline 100 % of control | dose: 240.0 mg/kg/injection, schedule: Q01DX005 (ip), vehicle: suspension in saline 105 % of control

CC(C)SC(=S)Nc1cc(Cl)c(Cl)cc1Cl
inactive: [5] 98 % of control | [6] 102 % of control

O=C1NC(=O)C(SSC2C(=O)NC(=O)NC2=O)C(=O)N1
inactive: dose: 50.0 mg/kg/injection, schedule: Q01DX009 (ip), vehicle: Klucel (hydroxypropylcellulose) (HPC) 109 % of control | dose: 100.0 mg/kg/injection, schedule: Q01DX009 (ip), vehicle: Klucel (hydroxypropylcellulose) (HPC) 95 % of control | dose: 200.0 mg/kg/injection, schedule: Q01DX009 (ip), vehicle: Klucel (hydroxypropylcellulose) (HPC) 94 % of control

CC(C)(C)C1CCC(O)(Cc2ccccc2)CC1 (centres undefined)
inactive: dose: 50.0 mg/kg/injection, schedule: Q01DX005 (ip), vehicle: saline with Tween-80 101 % of control | dose: 100.0 mg/kg/injection, schedule: Q01DX005 (ip), vehicle: saline with Tween-80 91 % of control | dose: 200.0 mg/kg/injection, schedule: Q01DX005 (ip), vehicle: saline with Tween-80 99 % of control

COC(=O)C1=C(C(=O)OC)C2(C)OC1c1ccccc12 (centres undefined)
inactive: dose: 15.0 mg/kg/injection, schedule: Q01DX005 (ip), vehicle: saline with Tween-80 106 % of control | dose: 30.0 mg/kg/injection, schedule: Q01DX005 (ip), vehicle: saline with Tween-80 106 % of control | [4] 100 % of control and 102 % of control

Cc1cc(=O)[nH]c(NNC(=O)c2ccc(Cl)cc2)n1
inactive: dose: 25.0 mg/kg/injection, schedule: Q01DX009 (ip), vehicle: distilled water + Tween-80 93 % of control | dose: 50.0 mg/kg/injection, schedule: Q01DX009 (ip), vehicle: distilled water + Tween-80 86 % of control | dose: 100.0 mg/kg/injection, schedule: Q01DX009 (ip), vehicle: distilled water + Tween-80 93 % of control | dose: 200.0 mg/kg/injection, schedule: Q01DX009 (ip), vehicle: distilled water + Tween-80 89 % of control | dose: 400.0 mg/kg/injection, schedule: Q01DX009 (ip), vehicle: distilled water + Tween-80 101 % of control

COc1ccc(C(F)C(N)C#N)cc1 (centres undefined)
inactive: [1] 109 % of control | [2] 98 % of control | [3] 107 % of control

CC(C)C[CH2][Ge]([CH2]CC(C)C)([CH2]CC(C)C)[CH2]CC(C)C
inactive: dose: 100.0 mg/kg/injection, schedule: Q01DX001 (ip), vehicle: saline with Tween-80 100 % of control | dose: 200.0 mg/kg/injection, schedule: Q01DX001 (ip), vehicle: saline with Tween-80 94 % of control | dose: 400.0 mg/kg/injection, schedule: Q01DX001 (ip), vehicle: saline with Tween-80 96 % of control

CN1C(=O)N(C)C2(C#N)CC2([N+](=O)[O-])C1=O (centres undefined)
inactive: [7] 89 % of control | [8] 90 % of control

CCOCC(COCC)(COCC)COCC
inactive: [7] 110 % of control | [8] 110 % of control | [5] 119 % of control

CN(C)Cc1cccc(CN(C)C)[c]1[Sn]([Br])([c]1ccccc1)[c]1ccccc1
inactive: dose: 1.56 mg/kg/injection, schedule: Q01DX009 (ip), vehicle: saline 104 % of control | dose: 3.12 mg/kg/injection, schedule: Q01DX009 (ip), vehicle: saline 106 % of control | [9] 120 % of control

CCOC(CBr)(OCC)OCC
inactive: [8] 94 % of control | [5] 113 % of control | [6] 113 % of control

CCCCOC1CCC2(C)C(=CCC3C2CCC2(C)C(C(C)CCCC(C)C)CCC32)C1 (centres undefined)
inactive: dose: 100.0 mg/kg/injection, schedule: Q04DX003 (sc), vehicle: steriod suspending solution 104 % of control | dose: 200.0 mg/kg/injection, schedule: Q04DX003 (sc), vehicle: steriod suspending solution 100 % of control | dose: 400.0 mg/kg/injection, schedule: Q04DX003 (sc), vehicle: steriod suspending solution 100 % of control

CC1=NCCN=C(C)C1N=Nc1ccc(S(=O)(=O)N=C(N)N)cc1
inactive: dose: 100.0 mg/kg/injection, schedule: Q04DX003 (ip), vehicle: saline with Tween-80 90 % of control | dose: 200.0 mg/kg/injection, schedule: Q04DX003 (ip), vehicle: saline with Tween-80 92 % of control | dose: 400.0 mg/kg/injection, schedule: Q04DX003 (ip), vehicle: saline with Tween-80 90 % of control

CC1CCC(C(C)C)C([c-]2[c-][c-][c-][c-]2)C1.CC1CCC(C(C)C)C([c-]2[c-][c-][c-][c-]2)C1.[Cl][Zr][Cl] (centres undefined)
inactive: dose: 6.25 mg/kg/injection, schedule: Q01DX001 (ip), vehicle: Klucel (hydroxypropylcellulose) (HPC) 110 % of control | dose: 12.5 mg/kg/injection, schedule: Q01DX001 (ip), vehicle: Klucel (hydroxypropylcellulose) (HPC) 100 % of control | dose: 25.0 mg/kg/injection, schedule: Q01DX001 (ip), vehicle: Klucel (hydroxypropylcellulose) (HPC) 103 % of control

COc1ncc[n+]([O-])n1
inactive: [5] 103 % of control | [6] 100 % of control and 108 % of control and 111 % of control | dose: 200.0 mg/kg/injection, schedule: Q01DX009 (ip), vehicle: saline with Tween-80 100 % of control and 102 % of control and 123 % of control | dose: 400.0 mg/kg/injection, schedule: Q01DX009 (ip), vehicle: saline with Tween-80 93 % of control

COc1c(NC(C)=O)c2c(c([N+](=O)[O-])c1OC)C(=O)OC2
inactive: [10] 106 % of control | [11] 104 % of control | [12] 110 % of control

O=C(O)c1c2ccccc2nc2[nH]c(=O)[nH]c(=O)c12
inactive: [10] 114 % of control and 95 % of control | dose: 50.0 mg/kg/injection, schedule: Q01DX005 (ip), vehicle: Klucel + Tween-80 117 % of control | [11] 107 % of control and 95 % of control | dose: 100.0 mg/kg/injection, schedule: Q01DX005 (ip), vehicle: Klucel + Tween-80 107 % of control | [12] 114 % of control | dose: 200.0 mg/kg/injection, schedule: Q01DX005 (ip), vehicle: Klucel + Tween-80 117 % of control

O=[N+]([O-])c1ncccc1NCCN1CCCC1
inactive: [9] 104 % of control | dose: 25.0 mg/kg/injection, schedule: Q01DX009 (ip), vehicle: saline 100 % of control | dose: 50.0 mg/kg/injection, schedule: Q01DX009 (ip), vehicle: saline 106 % of control and 108 % of control

COC1(OC)C=NNc2nncn21
inactive: dose: 50.0 mg/kg/injection, schedule: Q01DX005 (ip), vehicle: saline 105 % of control | dose: 100.0 mg/kg/injection, schedule: Q01DX005 (ip), vehicle: saline 107 % of control
